How the values were obtained:
[1] = test system: H5N1 influenza virus strain 178; assay type: cell-based, H5N1 influenza virus strain 178 in MDCK cells; details: 12–72 h
[2] = test system: RNP combinations of PB2, PB1, PA, and NP from influenza virus strain 178; assay type: cell-based, influenza virus strain 178 (H5N1), 293T cells
[3] = test system: H5N1 influenza virus strain 178; experiment: organism not typed; assay type: cell-based, H5N1 influenza virus strain 178 in MDCK cells
[4] = molecular target: purified N1‐type NA (Influenza A virus, UniProt P03468); assay type: biochemical
[5] = test system: H5N1‐HIV pseudoviruses (HA of A/Qinghai/59/2005(H5N1), NA of A/Thailand/Kan353/2004); assay type: cell-based, H5N1 pseudovirus in MDCK cells
[6] = test system: nuclear‐to‐cytoplasmic export of the RNP complex (NP); assay type: cell-based, 178 H5N1 HPAIV in MDCK cells
[7] = test system: MDCK cells
[8] = test system: influenza virus type A, A/Chicken/GuangDong/178/2004 (H5N1, 178)

Chain of purified N1‐type NA (P03468 whole entry): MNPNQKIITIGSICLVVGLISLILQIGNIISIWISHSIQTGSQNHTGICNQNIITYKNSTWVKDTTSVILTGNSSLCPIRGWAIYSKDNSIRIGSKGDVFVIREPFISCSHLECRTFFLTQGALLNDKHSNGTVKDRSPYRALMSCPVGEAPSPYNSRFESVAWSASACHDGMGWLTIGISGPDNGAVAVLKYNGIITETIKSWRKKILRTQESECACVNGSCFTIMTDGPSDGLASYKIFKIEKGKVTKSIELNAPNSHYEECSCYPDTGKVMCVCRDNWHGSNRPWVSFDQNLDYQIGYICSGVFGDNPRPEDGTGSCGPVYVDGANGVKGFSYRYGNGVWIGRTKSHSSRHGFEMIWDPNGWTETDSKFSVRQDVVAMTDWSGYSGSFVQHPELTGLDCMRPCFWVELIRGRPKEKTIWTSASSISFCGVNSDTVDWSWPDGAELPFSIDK

Structure (SMILES)	HA titer, cultured with DMEM‐containing compounds (protocol 4, 5, 7) [1]	luciferase activities (RNP activity) compared with no treatment [2]	inhibitory activity when added at time intervals 5 min–1 h, 15 min–1 h, 30 min–1 h, 1–2 h, 2–4 h, or 4–8 h [3]	inhibitory effect against virus, time of addition [3]	inhibition at 52 µM ([3]; read-out: virus inhibited (HA titer)) [%]	inhibitory activity on the N1‐type neuraminidase [4]	prevention of binding and internalizing of H5N1 pseudovirions into MDCK cells [5]	location of NP protein at 48 h p.i. (multi‐round replication) [6]	migration of the RNP complex from the nucleus to cytoplasm, early and middle stages of the replication cycle (0–6 h) [6]	time for which antiviral activity (block in vRNP nuclear export) was retained [6]	CC50 [7]	SI (CC50/EC50) [8]	distribution of NP protein at 12, 24, and 48 h p.i. [6]
O[C@H]1[C@H]2c3cc4c(cc3CN3CCC(=C[C@@H]1O)[C@H]23)OCO4 [AA1, lycorine]	no HA titer was detected	slightly higher luciferase activities	not significant	observed after a single round of replication (12 h p.i.)	~50	did not exhibit significant inhibitory activity	neither AA1 nor AA3 could prevent	NP protein was exported to cytoplasm	affected migration of the RNP complex from the nucleus to cytoplasm	up to 24 h	20·9 ± 0·07 μM	>45	
O=c1cc(N2CCOCC2)oc2c(-c3ccccc3)cccc12 [LY294002, reference compound]													the protein was still in the nucleus
